# According to patent US5656662A, “Synthesis of optically pure 4-alkenyl- or 4-alkanyl-2-hydroxytetronic acids” (The Ohio State University Research Foundation, priority 1995, dated 1997):
# How the values were obtained:
# Type in all cases: cell-based
# Parameters in all cases: key: NE: No effect; INHIB: Inhibition; STIM: Stimulation; IC40: 40% Inhibitory Concentration; EC50: 50% Effective Concentration; TC: Tolerated Concentration; IA: Interferes with Assay
# IL-6 = IL-6 secretion from purified human monocytes
# Procedure: This assay determines the effect of test compounds on the secretion of IL-6 from purified human monocytes. Compounds are tested for their ability to downregulate the production of IL-6 in activated monocytes, or upregulate secretion of IL-6 in unstimulated monocytes. Test compounds are incubated for sixteen hours with purified human monocytes at four dilutions over a range of three log10 concentrations. Where appropriate, lipopolysaccharide (LPS) is used to stimulate the monocytes.
# The level of IL-6 in the resultant supernatants is quantitated in a solid phase Enzyme-linked Immunoassay (EIA) performed in a 96 well format. IL-6 present in the samples is captured by a specific monoclonal antibody immobilized on the well, and probed with an anti-IL-6 polyclonal antibody conjugated to horseradish peroxidase, followed by an appropriate substrate. The levels of IL-6 are determined by interpolation of the resultant color change in the substrate from a standard curve. All supernatants are tested in duplicate with controls and standards.
# superoxide anion = test: Superoxide anion release from purified human monocytes; settings: zymosan
# Procedure: (§1) This assay measures the ability of the test compound to modulate the ability of purified human monocytes to release superoxide anions in response to a zymosan. Compounds are tested at four dilutions over a range of three log10 concentrations. Monocyte-compound cultures are treated with zymosan to stimulate anion production. The amount of superoxide anion produced is determined by the culture's ability to reduce cytochrome C, as measured colorimetrically. The assay is carried out in a 96-well format in triplicate and results are expressed in relation to baseline unstimulated and maximum controls. Appropriate reference controls are run with each assay.
# as §1, with “minimum” for “maximum”
# LTB4 = LTB4 production by purified human monocytes
# Procedure: (§2) This assay measures the ability of test compounds to modulate the amount of LTB4 produced by the oxygenation of arachidonic acid by 5-lipooxygenase produced by purified human monocytes. Compounds are tested for their ability to downregulate the secretion of LTB4 from activated monocytes, or upregulate secretion of LTB4 from unstimulated monocytes. Test compounds are incubated for ninety minutes with purified human monocytes at four dilutions over a range of three log10 concentrations. Where appropriate, zymosan is used to stimulate the monocytes.
# (§3) The level of LTB4 in the resultant supernatants is quantitated by immunoassay performed in a 96 well format. LTB4 levels modulated by unknown compounds are determined by interpolation from a standard curve. All compounds are tested in duplicate with controls and standards.
# peptidoleukotrienes = test: Peptidoleukotriene production by purified human monocytes
# Procedure: as §2, with “procedure” for “assay”, “peptidoleukotrienes” for “LTB4 produced by the oxygenation of arachidonic acid by 5-lipooxygenase”, “peptidoleukotrienes” for “LTB4”
# as §3, with “of peptidoleukotrienes” for “of LTB4”, “format. Peptidoleukotriene” for “format. LTB4”
# PAF = PAF production by purified human monocytes
# Procedure: as §2, with “of PAF” for “of LTB4 produced by the oxygenation of arachidonic acid by 5-lipooxygenase”, “of PAF” for “of LTB4”, “monocytes ar” for “monocytes at”
# The level of PAF in the resultant supernatants is quantitated by immunoassay performed in a 96 well format. PAF levels modulated by unknown compounds are determined by interpolation from a standard curve. All compounds are tested in duplicate with controls and standards.
# as §2, with “of PAF” for “of LTB4”, “by purified,” for “by the oxygenation of arachidonic acid by 5-lipooxygenase produced by purified”, “monocytes ar” for “monocytes at”
# [1] = tested on: normal human mononuclear cells; test: Two Way Mixed Lymphocyte Reaction
# Procedure: The purpose of this procedure is to determine the effect of test compounds on Mixed Lymphocyte Reaction and Mitogen-Induced Proliferation of normal human mononuclear cells.
# Procedure for Two Way Mixed Lymphocyte Reaction: PBMNC from two different donors are added to a 96-well cell culture plate. Four dilutions of test compounds, over a range of three log10 in quadruplicate, along with negative and inhibitory controls are then added to the plate and incubated for six days. Cultures are subsequently pulsed, harvested, and counted as above.
structure (smiles),measurement,setting,value
"CCCCCCCCCCCCCC/C=C\CC[C@@H]1OC(=O)C(O)=C1O [(S)-3,4-Dihydroxy-5-[(Z)-3-octadecenyl]-2(5H)-furanone]",EFFECT on IL6,IL-6; STIMULATED,NE
same,EFFECT on IL6,IL-6; UNSTIMULATED,NE
same,EFFECT on SUPEROXIDE,superoxide anion,IA
same,EFFECT on LTB4,LTB4; STIMULATED,NE
same,EFFECT on LTB4,LTB4; UNSTIMULATED,NE
same,EFFECT on PEPTIDOLEUKOTRIENES,peptidoleukotrienes; STIMULATED,NE
same,EFFECT on PEPTIDOLEUKOTRIENES,peptidoleukotrienes; UNSTIMULATED,NE
same,EFFECT on PAF,PAF; STIMULATED,NE
same,EFFECT on PAF,PAF; UNSTIMULATED,NE
same,EFFECT on MLR,[1],NE
